Data reported in the supplement of paper PMC10307832.

How the values were obtained:
Experiment in all cases: relative viability (nuclei count vs DMSO), 5 days (fraction); higher = more cells survive
[1] = compound: CC1=CC=C(C=C1)C(=O)CN2C3=C(CCCC3)SC2=N [Pifithrin_alpha] + CS(=O)(=O)N1CCN(Cc2cc3nc(-c4cccc5[nH]ncc45)nc(N4CCOCC4)c3s2)CC1 [Pictilisib] (partner 1 µM)
Procedure, shortened: (§1)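 Nuclei were stained with Hoechst during a one-step fixation (final 0.05% Triton X-100, 1% formaldehyde, 1 ug/ml Hoechst) carried out 5 days after dosing, then counted on 4× images. The cells, lung cancer lines in 1536-well plates, had been dosed by pin tool the day after seeding with one drug alone or a fixed anchor-drug dose plus five library-drug doses (not always all listed) in √10 steps. Relative viability is the nuclei count in treated wells divided by that in vehicle wells, and each value is the median of duplicate plates.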

[2] = compound: CC1=CC=C(C=C1)C(=O)CN2C3=C(CCCC3)SC2=N [Pifithrin_alpha] + CC(=O)c1c(C)c2cnc(Nc3ccc(N4CCNCC4)cn3)nc2n(C2CCCC2)c1=O [Palbociclib] (partner 0.5 µM)
Procedure, shortened: as §1

[3] = compound: CNC(=O)c1ccccc1Sc1ccc2c(/C=C/c3ccccn3)n[nH]c2c1 [Axitinib] + O=C(c1cc(Cc2n[nH]c(=O)c3ccccc23)ccc1F)N1CCN(C(=O)C2CC2)CC1 [Olaparib] (partner 8 µM)
Procedure, shortened: as §1

[4] = compound: CNC(=O)c1ccccc1Sc1ccc2c(/C=C/c3ccccn3)n[nH]c2c1 [Axitinib] + CS(=O)(=O)CCNCc1ccc(-c2ccc3ncnc(Nc4ccc(OCc5cccc(F)c5)c(Cl)c4)c3c2)o1 [Lapatinib] (partner 2 µM)
Procedure, shortened: as §1

Cell Line | relative viability ([1]; first compound 1 µM) | relative viability ([1]; first compound 3.162 µM) | relative viability ([1]; first compound 10 µM) | relative viability ([1]; first compound 31.62 µM) | relative viability ([1]; first compound 100 µM) | relative viability ([2]; first compound 1 µM) | relative viability ([2]; first compound 3.162 µM) | relative viability ([2]; first compound 10 µM) | relative viability ([2]; first compound 31.62 µM) | relative viability ([2]; first compound 100 µM) | relative viability ([3]; first compound 0.005 µM) | relative viability ([3]; first compound 0.01581 µM) | relative viability ([3]; first compound 0.05 µM) | relative viability ([3]; first compound 0.1581 µM) | relative viability ([3]; first compound 0.5 µM) | relative viability ([4]; first compound 0.005 µM) | relative viability ([4]; first compound 0.01581 µM) | relative viability ([4]; first compound 0.05 µM) | relative viability ([4]; first compound 0.1581 µM) | relative viability ([4]; first compound 0.5 µM)
NCI-H661 | 0.322 | 0.391 | 0.359 | 0.472 | 0.333 | 0.397 | 0.4 | 0.36 | 0.386 | 0.334 | 0.724 | 0.753 | 0.741 | 0.698 | 0.834 | 0.608 | 0.522 | 0.359 | 0.481 | 0.534
UMC-11 | 0.775 | 0.802 | 0.888 | 0.604 | 1.03 | 0.342 | 0.289 | 0.301 | 0.283 | 0.296 | 0.353 | 0.4 | 0.737 | 0.376 | 0.335 | 0.945 | 1.06 | 0.959 | 0.916 | 0.943
NCI-H520 | 0.27 | 0.311 | 0.301 | 0.269 | 0.285 | 0.203 | 0.254 | 0.26 | 0.205 | 0.222 | 0.342 | 0.345 | 0.361 | 0.251 | 0.368 | 0.902 | 0.778 | 0.771 | 0.751 | 0.785
COR-L23 | 0.736 | 0.75 | 0.731 | – | 0.695 | 0.287 | 0.26 | 0.281 | – | 0.267 | 0.367 | 0.376 | 0.326 | 0.363 | 0.387 | 0.975 | 0.963 | 1.12 | 0.808 | 1.12
NCI-H1648 | – | – | – | – | – | 0.221 | 0.313 | 0.305 | 0.337 | 0.296 | 0.616 | 0.975 | 0.554 | 0.979 | 0.958 | – | – | – | – | –
